Article PMC5978685, “Design, Synthesis, and Evaluation of Novel Immunomodulatory Small Molecules Targeting the CD40–CD154 Costimulatory Protein-Protein Interaction” (Molecules : A Journal of Synthetic Chemistry and Natural …, 2018)
Where two headings read alike, the source gives them in different places.

Key:
CD154 (CD40L) = molecular target: T1, CD154 (CD40L) (Homo sapiens, UniProt P29965); assay: protein thermal shift (differential scanning fluorimetry), CD154; format: binding; details: 25 μM of 11, 10 μM of DRI-C21045; CD154 0.05 mg/mL
T1 construct: purchased Peprotech
T1 sequence (P29965 113-261 limits assumed): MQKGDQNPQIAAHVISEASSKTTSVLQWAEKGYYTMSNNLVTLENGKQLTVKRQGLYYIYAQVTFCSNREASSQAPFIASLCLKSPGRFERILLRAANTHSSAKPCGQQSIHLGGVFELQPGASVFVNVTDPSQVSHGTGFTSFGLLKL
Excerpt: (§1) A protein thermal shift assay (differential scanning fluorimetry, also known as ThermoFluor assay) was used to establish whether our small-molecule probes bind to CD40 or CD154 (CD40L). This technique quantifies the shift in protein stability due to ligand binding via use of a dye whose fluorescence increases when exposed to hydrophobic surfaces, which happens as the protein unfolds exposing its normally buried hydrophobic core residues. […]
(§2) This assay was used following standard protocols as described in the literature to establish whether CD154 or CD40 is the binding partner of our compounds. Sypro orange (ThermoFisher; Waltham, MA, USA) was used as the fluorescence detection dye with an RT-PCR machine (StepOnePlus, Applied Biosystems (Foster City, CA, USA); detection on ROX channel, 575/602 nm) programmed to equilibrate samples at 25 °C for 90 s and then increase temperature to 99 °C by 0.4 °C every 24 s before taking a reading. Melting point of the protein is considered the lowest point of the first derivative plot, as calculated by the software included with the RT-PCR machine. Optimal concentrations were determined by performing a series of preliminary scans at various concentrations of protein, compound, and dye (CD154 0.05 mg/mL, CD40-Fc 0.1 mg/mL, Sypro orange 4×, 100 mM HEPES buffer, 10 μM of DRI-C21045 and 25 μM of 11). […]

CD40–CD154 (CD40L) [1] = molecular target: T2, CD40–CD154 (CD40L) (Homo sapiens, UniProt P29965); parameters: method as in PMID 29024591; details: read-out: CD40–CD154 IC50 (previous work); cited from earlier work
T2 construct: purchased Enzo Life Sciences
T2 sequence (P29965 116-261 limits assumed): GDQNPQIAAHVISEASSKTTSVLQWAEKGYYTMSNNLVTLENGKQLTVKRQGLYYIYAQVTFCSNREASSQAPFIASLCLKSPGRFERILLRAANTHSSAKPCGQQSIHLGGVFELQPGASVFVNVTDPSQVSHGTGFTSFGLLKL

CD40 = molecular target: T3, CD40 (Homo sapiens, UniProt P25942); assay: protein thermal shift (differential scanning fluorimetry), CD40; format: binding; details: 25 μM of 11, 10 μM of DRI-C21045; CD40-Fc 0.1 mg/mL
T3 construct: purchased Enzo Life Sciences
T3 sequence (P25942 21-277): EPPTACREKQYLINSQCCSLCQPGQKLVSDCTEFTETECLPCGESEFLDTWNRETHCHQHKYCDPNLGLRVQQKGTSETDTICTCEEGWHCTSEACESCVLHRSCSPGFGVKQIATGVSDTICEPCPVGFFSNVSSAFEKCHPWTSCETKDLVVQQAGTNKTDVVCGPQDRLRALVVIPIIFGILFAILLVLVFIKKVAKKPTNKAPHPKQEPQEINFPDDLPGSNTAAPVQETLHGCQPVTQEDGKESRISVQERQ
Excerpt: as §1, §2

TNF-R1–TNFα = molecular target: T4, TNF-R1–TNFα (Homo sapiens, UniProt P01375); assay: cell-free ELISA-type binding inhibition assay, TNF-R1–TNFα; details: cell-free TNF-R1–TNFα binding inhibition; read-out: TNF IC50
T4 construct: purchased Enzo Life Sciences
T4 sequence (P01375 85-233 limits assumed): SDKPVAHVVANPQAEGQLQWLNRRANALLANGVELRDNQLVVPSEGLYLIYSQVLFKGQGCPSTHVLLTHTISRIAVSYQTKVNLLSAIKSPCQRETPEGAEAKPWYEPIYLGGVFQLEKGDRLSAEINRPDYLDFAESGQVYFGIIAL
Experimental: (§3) In parallel with the CD40–CD154 assay, the ability of these compounds to inhibit other TNFSFR–TNFSF PPIs, including OX40–OX40L, BAFFR–BAFF, and TNF-R1–TNF-α, was also assessed (Figure 3B–D).
(§4) Binding inhibition assays were performed in a 96-well cell-free format as described before. Briefly, microtiter plates (Nunc F Maxisorp, 96-well; Thermo Fisher Scientific, Waltham, MA, USA) were coated overnight at 4 °C with 100 μL/well of Fc-conjugated receptors diluted in PBS pH 7.2. This was followed by blocking with 200 μL/well of blocking solution (PBS pH 7.2, 0.05% Tween-20, 1% BSA) for 1 h at RT. Then, plates were washed twice using washing solution (PBS pH 7.4, 0.05% Tween-20) and tapped dry before the addition of the appropriate FLAG tagged ligands along with different concentrations of tested dyes diluted in binding buffer (100 mM HEPES, 0.005% BSA pH 7.2) to give a total volume of 100 μL/well. After 1 h incubation, three washes were conducted, and anti-FLAG HRP conjugate was used to detect the bound FLAG-tagged ligand. Plates were washed four times before the addition of 120 μL/well of HRP substrate TMB (3,3′,5,5′-tetramethylbenzidine) and kept in the dark for up to 15 min. The reaction was stopped using 30 μL of 1M H2SO4, and the absorbance value was read at 450 nm. The concentrations of receptors used were 0.3 μg/mL for CD40, TNF-R1, and BAFFR; 0.6 μg/mL for OX40. The concentrations of the ligands were fixed at 0.02 μg/mL for CD154 and TNF-α, 0.06 μg/mL for OX40L, and 0.03 μg/mL for BAFF. These values were selected following preliminary testing to optimize response (i.e., to produce a high-enough signal at conditions close to half-maximal response, EC50). […] To verify that inhibition is not due to colloidal aggregation, CD40 binding inhibition was also measured in the presence of the non-ionic detergent Triton-X 100 (0.01%), as recommended for the detection of such effects.
(§5) All binding inhibition and cell assays were tested in duplicate or triplicate per plates, and assays were performed as at least three independent experiments. As before, binding and cytotoxicity data were converted to percent inhibition and fitted with standard log inhibitor vs. normalized response models using nonlinear regression in GraphPad Prism (GraphPad, La Jolla, CA, USA) to establish half-maximal (median) inhibitory concentration (IC50) or median lethal concentration (LC50) values. Cell assay data were fitted with a similar model that also allowed for a variable slope using the log inhibitor vs. normalized response (variable slope) model from Prism with a Hill slope (n) shared across all compounds. Cell assays and draining lymph node data were analyzed by one-way repeated-measures analysis of variance (ANOVA) followed by Dunnett’s multiple comparison test as a post hoc test for individual differences using GraphPad Prism and a significance level of p < 0.05 for all comparisons.
(§6) Data are (counterclockwise) for human CD40–CD154 (CD40L) (A); OX40–OX40L (B); BAFFR–BAFF (C); and TNF-R1–TNFα (D) and were fitted with standard binding curves. Data are average ± SD (normalized to percent binding) for n = 3 independent experiments with duplicates for each condition.

BAFFR–BAFF = molecular target: T5, BAFFR–BAFF (Homo sapiens, UniProt Q9Y275); assay: cell-free ELISA-type binding inhibition assay, BAFFR–BAFF
T5 construct: purchased Enzo Life Sciences
T5 sequence (Q9Y275 134-285 limits assumed): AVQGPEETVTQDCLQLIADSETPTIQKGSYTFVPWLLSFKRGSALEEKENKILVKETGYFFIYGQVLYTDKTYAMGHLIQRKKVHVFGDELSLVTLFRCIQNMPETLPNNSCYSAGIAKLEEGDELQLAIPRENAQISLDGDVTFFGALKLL
Experimental: as §3, §4, §5, §6

CD40–CD154 (CD40L) [2] = molecular target: T2, CD40–CD154 (CD40L); assay: cell-free ELISA-type binding inhibition assay, CD40–CD154; details: for selectivity toward CD40–CD154 against all other PPIs tested: vs OX40–OX40L, BAFFR–BAFF, TNF-R1–TNF-α
Excerpt: As a first assessment, the CD40–CD154 inhibitory activity of compounds 6–19 (Figure 2, Table 1) was quantified using a cell-free in vitro binding inhibition assay as described before. Data fitted with typical sigmoidal concentration dependence curves (log inhibitor versus response model in GraphPad Prism, Hill slope n = 1) are summarized in Figure 3A. […] Polymolecular conglomeration and/or aggregation is often a cause of promiscuous inhibition in screening assays. Therefore, just as in our previous work, we checked for this, and we confirmed for several compounds that inhibition due to aggregation is not the case by retesting inhibitory activity in the presence of a non-ionic detergent (Triton-X 100, 0.01%) as recommended for the detection of such effects.
as §4, §5, §6

OX40–OX40L = molecular target: T6, OX40–OX40L (Homo sapiens, UniProt P23510); assay: cell-free ELISA-type binding inhibition assay, OX40–OX40L
T6 construct: purchased Enzo Life Sciences
T6 sequence (P23510 51-183 limits assumed): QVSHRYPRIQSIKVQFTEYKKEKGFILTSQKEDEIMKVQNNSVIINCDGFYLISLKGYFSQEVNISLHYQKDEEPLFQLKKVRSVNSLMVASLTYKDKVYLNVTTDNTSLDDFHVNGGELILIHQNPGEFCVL
Experimental: as §3, §4, §5, §6

[3] = MTS cytotoxicity assay in HEK Blue cells; format: cell-based; details: human, HEK Blue CD40 sensor cells; HEK Blue cells, 24 h; read-out: LC50 (cytotoxicity, MTS)
Excerpt: (§7) As further confirmation of the inhibitory activity of our compounds, a cell-based assay was used with sensor cells (HEK Blue CD40) containing a secreted embryonic alkaline phosphatase (SEAP) reporter gene under the control of a promoter fused to a NF-κB binding site and transfected with CD40. […] For all tested compounds, the corresponding IC50 values are higher than those determined in the cell-free binding inhibition assay (Table 1) representing a loss of activity which is likely due to non-specific binding on account of the presence of proteins and cells in the assay, as well as hydrophobicity-related problems. Cytotoxicities were also evaluated in these same cells and at the same concentrations using a standard MTS assay to ensure that effects are present at non-toxic concentration levels.
(§8) For the MTS assay, HEK Blue cells were cultured and prepared in the same manner as in the CD40 sensor assay. Then cells were added to a 96-well microtiter plate at a density of 50,000 cells/well in the absence or presence of various concentrations of compounds diluted in the same media, without the addition of CD154. The plate was incubated at 37 °C for 24 h. 20 µL per well of MTS, 3-(4,5-dimethylthiazol-2-yl)-5-(3-carboxymethoxyphenyl)-2-(4-sulfophenyl)-2H-tetrazolium, (Promega, Madison, WI, USA) was added to the culture after treatments, and cells were incubated at 37 °C for 4 h. Formazan levels were measured using a plate reader at 490 nm.
as §5

HEK Blue cells = assay: MTS cytotoxicity assay in HEK Blue cells; format: cell-based; details: LC50 (MTS) / NF-κB IC50 in sensor cells
Excerpt: as §7, §8, §5

[4] = system: CD154-induced NF-κB activation in CD40 sensor cells; assay: CD40 sensor cell assay (HEK Blue CD40, SEAP reporter); format: cell-based, human
Excerpt: as §7
CD40 expressing NF-κB sensor cells (HEK Blue, InvivoGen, San Diego, CA, USA) were used to assess the ability of the present compounds to block CD154-induced activation as described before. Briefly, cells were maintained in DMEM at 80% confluence for each experiment. Cells were trypsinized and re-suspended in the same medium without FBS and seeded on 96-well microtiter plates at a density of 50,000 cells/well in the absence and presence of various concentrations of compounds diluted in the same media. For ligand mediated stimulation, a concentration of recombinant human CD154 (100 ng/mL) found to induce an optimal response was maintained in the wells for this purpose. After 24 h of incubation at 37 °C, 40 μL supernatant of each well were taken and added to another 96-well microtiter plate containing 160 μL/well of QUANTI-Blue (InvivoGen). The level of SEAP was determined after 1 h of incubation at 37 °C by reading at 650 nm using a spectrophotometer. A monoclonal anti-human CD154 antibody (clone 40804, R&D Systems, Minneapolis, MN, USA) was used as a positive control at 240 nM concentration.
as §5
Figure 5 Inhibition of CD154-induced NF-κB activation in CD40 sensor cells by compounds 6, 14, 15, and 18 in a concentration-dependent manner. Tartrazine (TZ) and an anti-CD154 antibody (mAb; single dose, 240 nM) were included as negative and positive controls, respectively. Data are average ± SD (normalized to CD154-activated cells alone) for n = 2 independent experiments with duplicates for each condition.

[5] = solubilization in the in vivo dosing vehicle; format: physicochemical; details: vehicle 20% HPβCD
[6] = cell-free CD40–CD154 binding inhibition, read-out: CD40 IC50

| Structure (SMILES) | shift in melting temperature (Tm) of CD154 (CD154 (CD40L)) | IC50 (CD40–CD154 (CD40L) [1]) [nM] | shift in melting temperature (Tm) of CD40 (CD40) | IC50 (TNF-R1–TNFα) [µM] | IC50 (BAFFR–BAFF) [µM] | IC50 (CD40–CD154 (CD40L) [2]; [6]) [µM] | IC50 (CD40–CD154 (CD40L) [2]; cell-free binding inhibition assay, read-out: CD40–CD154 IC50) [µM] | IC50 (OX40–OX40L) [µM] | CC50 at 24 h [3] [µM] | therapeutic index, TI = LC50/IC50 (HEK Blue cells) | inhibition of CD154-induced NF-κB activation (qualitative) [4] | IC50 ([4]; Homo sapiens, CD154 100 ng/mL, 24 h) [µM] | selectivity toward CD40–CD154 against all other PPIs tested (CD40–CD154 (CD40L) [2]) [fold] | selectivity toward CD40–CD154 against all other PPIs tested (CD40–CD154 (CD40L) [2]; listed as DRI-C21091) | solubility in the vehicle for in vivo dosing [5] |
| --- | --- | --- | --- | --- | --- | --- | --- | --- | --- | --- | --- | --- | --- | --- | --- |
| COC(=O)c1ccc(C(=O)Nc2ccc(-c3ccc(C(=O)Nc4cccc5cccc(S(=O)(=O)O)c45)cc3)cc2)cc1 [DRI-C21045, reference compound] | caused clear shifts | 170 | not for CD40 | – | – | – | – | – | – | – | – | – | – | – | – |
| COC(=O)c1ccc(C(=O)Nc2ccc(-c3ccc(C(=O)Nc4ccc(S(=O)(=O)O)c5cccc(S(=O)(=O)O)c45)cc3)cc2)cc1 [Compound 11, 4-(4′-(4-(Methoxycarbonyl)benzamido)-[1,1′-biphenyl]-4-carboxamido)naphthalene-1,5-disulfonic acid] | caused clear shifts | – | not for CD40 | 456 | 540 | 60.1 | 60 | 120 | – | – | – | – | – | – | – |
| O=C(Nc1ccc(-c2ccc(C(=O)Nc3cccc4cccc(S(=O)(=O)O)c34)cc2)cc1)c1ccc(-c2ccc([N+](=O)[O-])cc2)cc1 [Compound 14, 8-(4′-(4′-Nitro-[1,1′-biphenyl]-4-carboxamido)-[1,1′-biphenyl]-4-carboxamido)naphthalene-1-sulfonic acid] | – | – | – | 70.3 | 0.784 | 0.02 | – | 6.88 | 55.6 | 5 | concentration-dependent inhibition | 11.1 | > 30 | more than thirty-fold | could not be sufficiently solubilized in the vehicle |
